Experimental data as given in patent US7709471B2, “Compounds” (AstraZeneca AB, priority 2006, dated 2010).
pIC50: −log10 of the molar value.

biological target: recombinant Plk1 (Homo sapiens, UniProt P53350); test: In Vitro Plk1 Enzyme Assay (SPA, GST-Cdc25C phosphorylation); type: biochemical; conditions: ATP 64 nM, 90 minutes, read-out: IC50 (Plk1 enzyme inhibition)
Sequence (P53350 whole entry): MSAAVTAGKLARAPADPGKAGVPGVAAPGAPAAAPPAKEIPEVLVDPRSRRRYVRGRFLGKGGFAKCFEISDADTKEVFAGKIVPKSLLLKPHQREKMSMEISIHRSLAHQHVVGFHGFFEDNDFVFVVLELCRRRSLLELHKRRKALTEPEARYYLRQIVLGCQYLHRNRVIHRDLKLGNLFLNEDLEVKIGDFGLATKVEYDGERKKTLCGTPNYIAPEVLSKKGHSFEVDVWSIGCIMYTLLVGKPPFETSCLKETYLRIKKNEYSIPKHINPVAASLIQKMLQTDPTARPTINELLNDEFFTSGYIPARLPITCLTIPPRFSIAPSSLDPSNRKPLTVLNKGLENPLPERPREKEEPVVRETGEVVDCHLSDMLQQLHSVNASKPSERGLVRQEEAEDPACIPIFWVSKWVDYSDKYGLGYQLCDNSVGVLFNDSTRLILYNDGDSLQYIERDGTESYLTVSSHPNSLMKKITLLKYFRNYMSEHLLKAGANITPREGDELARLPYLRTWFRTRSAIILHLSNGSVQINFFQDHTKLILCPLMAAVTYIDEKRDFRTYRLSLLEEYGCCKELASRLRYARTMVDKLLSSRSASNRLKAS

pIC50 | Compound
> 6.00 | 6-cyclopentyl-2-methyl-9-[(2,3,4-trimethoxyphenyl)amino]-2,6,8,10-tetrazabicyclo[5.4.0]undeca-8,10,12-trien-3-one [Example 130]
> 4.00 | CN1CCC(NC(=O)c2csc(Nc3ncc4c(n3)N(C3CCCC3)CCC(=O)N4C)n2)CC1 [Example 261, 2-[(6-cyclopentyl-2-methyl-3-oxo-2,6,8,10-tetrazabicyclo[5.4.0]undeca-8,10,12-trien-9-yl)amino]-N-(1-methyl-4-piperidyl)1,3-thiazole-4-carboxamide]
> 4.00 | CN1C(=O)CCN(C2CCCC2)c2nc(Nc3ccccc3NCCN3CCOCC3)ncc21 [Example 156, 6-cyclopentyl-2-methyl-9-[[2-(2-morpholin-4-ylethylamino)phenyl]amino]-2,6,8,10-tetrazabicyclo[5.4.0]undeca-8,10,12-trien-3-one]
> 4.00 | CN(C)CCOc1ccc(Nc2ncc3c(n2)N(C2CCCC2)CCC(=O)N3C)cc1 [Example 118, 6-cyclopentyl-9-[[4-(2-dimethylaminoethoxy)phenyl]amino]-2-methyl-2,6,8,10-tetrazabicyclo[5.4.0]undeca-8,10,12-trien-3-one]
> 4.00 | CN1C(=O)CCN(C2CCCC2)c2nc(Nc3ccccc3S(N)(=O)=O)ncc21 [Example 145, 2-[(6-cyclopentyl-2-methyl-3-oxo-2,6,8,10-tetrazabicyclo[5.4.0]undeca-8,10,12-trien-9-yl)amino]benzenesulfonamide]
> 6.00 | COc1cccc(Nc2ncc3c(n2)N(C2CCCC2)CCC(=O)N3C)c1 [Example 161, 6-cyclopentyl-9-[(3-methoxyphenyl)amino]-2-methyl-2,6,8,10-tetrazabicyclo[5.4.0]undeca-8,10,12-trien-3-one]
> 4.00 | CSc1ccccc1Nc1ncc2c(n1)N(C1CCCC1)CCC(=O)N2C [Example 141, 6-cyclopentyl-2-methyl-9-[(2-methylsulfanylphenyl)amino]-2,6,8,10-tetrazabicyclo[5.4.0]undeca-8,10,12-trien-3-one]
> 6.00 | 6-cyclopentyl-9-[[5-(3-dimethylaminopyrrolidin-1-yl)-2-methoxy-phenyl]amino]-2-methyl-2,6,8,10-tetrazabicyclo[5.4.0]undeca-8,10,12-trien-3-one [Example 182]
> 4.00 | CN1C(=O)CCN(C2CCCC2)c2nc(Nc3ccc(Cl)nc3)ncc21 [Example 266, 9-[(6-chloropyridin-3-yl)amino]-6-cyclopentyl-2-methyl-2,6,8,10-tetrazabicyclo[5.4.0]undeca-8,10,12-trien-3-one]
> 4.00 | CN1C(=O)CCN(C2CCCC2)c2nc(Nc3ccc(S(=O)(=O)N4CCCCC4)cc3)ncc21 [Example 134, 6-cyclopentyl-2-methyl-9-[[4-(1-piperidylsulfonyl)phenyl]amino]-2,6,8,10-tetrazabicyclo[5.4.0]undeca-8,10,12-trien-3-one]
> 4.00 | CN1C(=O)CCN(C2CCCC2)c2nc(Nc3ccccc3CN3CCOCC3)ncc21 [Example 160, 6-cyclopentyl-2-methyl-9-[[2-(morpholin-4-ylmethyl)phenyl]amino]-2,6,8,10-tetrazabicyclo[5.4.0]undeca-8,10,12-trien-3-one]
> 4.00 | CCNS(=O)(=O)c1ccccc1Nc1ncc2c(n1)N(C1CCCC1)CCC(=O)N2C [Example 154, 2-[(6-cyclopentyl-2-methyl-3-oxo-2,6,8,10-tetrazabicyclo[5.4.0]undeca-8,10,12-trien-9-yl)amino]-N-ethyl-benzenesulfonamide]
> 6.00 | COc1cc(Nc2ncc3c(n2)N(C2CCCC2)CCC(=O)N3C)cc(OC)c1OC [Example 129, 6-cyclopentyl-2-methyl-9-[(3,4,5-trimethoxyphenyl)amino]-2,6,8,10-tetrazabicyclo[5.4.0]undeca-8,10,12-trien-3-one]
> 4.00 | CN1C(=O)CCN(C2CCCC2)c2nc(Nc3ccccc3Br)ncc21 [Example 147, 9-[(2-bromophenyl)amino]-6-cyclopentyl-2-methyl-2,6,8,10-tetrazabicyclo[5.4.0]undeca-8,10,12-trien-3-one]
> 4.00 | CCOc1ccccc1Nc1ncc2c(n1)N(C1CCCC1)CCC(=O)N2C [Example 140, 6-cyclopentyl-9-[(2-ethoxyphenyl)amino]-2-methyl-2,6,8,10-tetrazabicyclo[5.4.0]undeca-8,10,12-trien-3-one]
> 4.00 | CN1CCC(NC(=O)c2ccc(Nc3ncc4c(n3)N(C3CCCC3)CCC(=O)N4)cc2)CC1 [Example 254, 4-[(6-cyclopentyl-3-oxo-2,6,8,10-tetrazabicyclo[5.4.0]undeca-8,10,12-trien-9-yl)amino]-N-(1-methyl-4-piperidyl)benzamide]
> 6.00 | CC(C)c1ccccc1Nc1ncc2c(n1)N(C1CCCC1)CCC(=O)N2C [Example 150, 6-cyclopentyl-2-methyl-9-[(2-propan-2-ylphenyl)amino]-2,6,8,10-tetrazabicyclo[5.4.0]undeca-8,10,12-trien-3-one]
> 4.00 | CN1C(=O)CCN(C2CCCC2)c2nc(Nc3cccc(S(C)(=O)=O)c3)ncc21 [Example 172, 6-cyclopentyl-2-methyl-9-[(3-methylsulfonylphenyl)amino]-2,6,8,10-tetrazabicyclo[5.4.0]undeca-8,10,12-trien-3-one]
> 6.52 | COc1cc(C(=O)O)ccc1Nc1ncc2c(n1)N(C1CCCC1)CCC(=O)N2C [Example 111, 4-[(2-cyclopentyl-6-methyl-5-oxo-2,6,9,11-tetrazabicyclo[5.4.0]undeca-7,9,11-trien-10-yl)amino]-3-methoxy-benzoic acid]
> 6.00 | COc1ccc(Nc2ncc3c(n2)N(C2CCCC2)CCC(=O)N3C)cn1 [Example 267, 6-cyclopentyl-9-[(6-methoxypyridin-3-yl)amino]-2-methyl-2,6,8,10-tetrazabicyclo[5.4.0]undeca-8,10,12-trien-3-one]
> 4.00 | CN1C(=O)CCN(C2CCCC2)c2nc(Nc3cccc(CNC(=O)OC(C)(C)C)c3)ncc21 [Example 136, tert-butyl N-[[3-[(6-cyclopentyl-2-methyl-3-oxo-2,6,8,10-tetrazabicyclo[5.4.0]undeca-8,10,12-trien-9-yl)amino]phenyl]methyl]carbamate]
> 4.00 | COc1cc(C(=O)NC2CCCCC2)ccc1Nc1ncc2c(n1)N(CCN1CCCCC1)CCC(=O)N2C [Example 276, N-cyclohexyl-3-methoxy-4-[[6-methyl-5-oxo-2-[2-(1-piperidyl)ethyl]-2,6,9,11-tetrazabicyclo[5.4.0]undeca-7,9,11-trien-10-yl]amino]benzamide]
> 4.00 | O=C1CCN(c2ccccc2)c2nc(Nc3ccc(C(=O)NCCN4CCOCC4)cc3)ncc2N1 [Example 249, N-(2-morpholin-4-ylethyl)-4-[(3-oxo-6-phenyl-2,6,8,10-tetrazabicyclo[5.4.0]undeca-7,9,11-trien-9-yl)amino]benzamide]
> 4.00 | CN1C(=O)CCN(C2CCCC2)c2nc(Nc3ccccc3-c3ccccc3)ncc21 [Example 148, 6-cyclopentyl-2-methyl-9-[(2-phenylphenyl)amino]-2,6,8,10-tetrazabicyclo[5.4.0]undeca-8,10,12-trien-3-one]
